This assay addresses T1, tyrosinase (mushroom tyrosinase, polyphenoloxidase EC 1.14.18.1).
T1 construct: gene PPO3; native enzyme from mushroom caps; ammonium sulphate, DEAE-cellulose, Superdex 200; single 63 kDa band on SDS-PAGE; isoenzyme not determined
Description: isothermal titration calorimetry. The arrangement: species or system Agaricus bisporus. To be noted: 25 °C, pH 6.8, 25 mM phosphate; step 1 (strongest) of three-step sequential binding model. The text has this:
isothermal titration calorimetry on tyrosinase (mushroom tyrosinase, polyphenoloxidase EC 1.14.18.1)
In general terms: ITC needs no label: the signal is the heat of the interaction.

The record followed here is PMC9786741, “Elucidating the Role of Santalol as a Potent Inhibitor of Tyrosinase: In Vitro and In Silico Approaches” (Molecules, 2022).

As usually defined, the Kd is the constant that tells how readily two partners part at equilibrium. Low readings indicate a tighter complex, high ones a looser complex. Take `C=C1C2CCC(C2)C1(C)CC/C=C(/C)CO` (stereo not shown) [santalol]: the Kd was 1270 nM.
